Values after ≈ are worked out from the molar mass of the structure shown.
How the values were obtained:
Klebsiella aerogenes = test: Antibacterial activity of compound was determined against Klebsiella aerogenes 1976E; type: functional
Klebsiella pneumoniae = test: Antibacterial activity of compound was determined against Klebsiella pneumoniae 2011E; type: functional
Pseudomonas aeruginosa = test: Antibacterial activity of compound was determined against Pseudomonas aeruginosa 1912; type: functional
Staphylococcus aureus = test: Antibacterial activity of compound was determined against Staphylococcus aureus 1538p; type: functional
Bacillus cereus = test: Antibacterial activity of compound was determined against Bacillus cereus ATCC 27348; type: functional
Salmonella typhimurium = test: Antibacterial activity of compound was determined against Salmonella Typhimurium 14028; type: functional, Salmonella enterica subsp. enterica serovar Typhimurium; details: Salmonella enterica
Escherichia coli = test: Antibacterial activity of compound was determined against Escherichia coli JM109; type: functional
[1] = test system: Staphylococcus epidermidis; test: Antibacterial activity of compound was determined against […] 887E; type: functional

| Compound | MIC (Klebsiella aerogenes) | MIC (Klebsiella pneumoniae) | MIC (Pseudomonas aeruginosa) | MIC (Staphylococcus aureus) | MIC (Bacillus cereus) | MIC (Salmonella typhimurium) | MIC (Escherichia coli) | MIC [1] |
| --- | --- | --- | --- | --- | --- | --- | --- | --- |
| CSCC[C@H](N)C(=O)NC[C@H]1OC(n2cnc3c(N)ncnc32)[C@H](O)[C@@H]1O (stereo not given in full) | > 64 µg/mL | > 64 µg/mL | > 64 µg/mL | > 64 µg/mL | > 64 µg/mL | > 64 µg/mL | 1 µg/mL (≈ 2.52 µM) | > 64 µg/mL |
| CSCC[C@H](N)C(=O)N(O)C[C@H]1OC(n2cnc3c(N)ncnc32)[C@H](O)[C@@H]1O (stereo not given in full) | > 64 µg/mL | > 64 µg/mL | > 64 µg/mL | > 64 µg/mL | 8 µg/mL (≈ 19.3 µM) | > 64 µg/mL | 0.5 µg/mL (≈ 1.21 µM) | > 64 µg/mL |

Continued, values first:

| MIC (Klebsiella aerogenes) | MIC (Klebsiella pneumoniae) | MIC (Pseudomonas aeruginosa) | MIC (Staphylococcus aureus) | MIC (Bacillus cereus) | MIC (Salmonella typhimurium) | MIC (Escherichia coli) | MIC [1] | Compound |
| --- | --- | --- | --- | --- | --- | --- | --- | --- |
| 4 µg/mL (≈ 24.4 µM) | > 64 µg/mL | > 64 µg/mL | > 64 µg/mL | > 64 µg/mL | 8 µg/mL (≈ 48.7 µM) | 0.5 µg/mL (≈ 3.04 µM) | > 64 µg/mL | CSCC[C@H](N)C(=O)NO |
| > 64 µg/mL | > 64 µg/mL | > 64 µg/mL | > 64 µg/mL | 32 µg/mL (≈ 80.3 µM) | > 64 µg/mL | 0.5 µg/mL (≈ 1.25 µM) | > 64 µg/mL | CSCC[C@H](N)C(=O)OC[C@H]1O[C@@H](n2cnc3c(N)ncnc32)[C@H](O)[C@@H]1O |
| > 64 µg/mL | > 64 µg/mL | > 64 µg/mL | > 64 µg/mL | > 64 µg/mL | > 64 µg/mL | 8 µg/mL (≈ 19.3 µM) | > 64 µg/mL | CSCC[C@H](N)C(=O)NOC[C@H]1OC(n2cnc3c(N)ncnc32)[C@H](O)[C@@H]1O (stereo not given in full) |

Reference: ChEMBL document CHEMBL1131707, “Methionyl adenylate analogues as inhibitors of methionyl-tRNA synthetase” (1999)
